In patent US20140163050A1, “Use of 1H-quinazoline-2,4-diones” (priority 2011, published 2014):

These compounds were tested on mouse (assay: Oral bioavailability: in vivo orally active (audiogenic mouse test and/or MES test)). Settings: not given.
Procedure: The oral bioavailability was tested using the audiogenic mouse test (Audiogenic seizures, R. L. Collins; Chapter 14, pages: 347-372. In: Experimental Models of Epilepsy; By: Pupura, Penry, Tower, Woodbury, Walter, Raven Press, New York, 1972. Standard Book Number: 0-911216-26-X) and/or the MES test.

| SMILES | In vivo orally active |
| --- | --- |
| CC(O)c1cc2c(=O)n(NS(C)(=O)=O)c(=O)[nH]c2cc1C(F)(F)F (stereo not drawn) [Compound A-1, N-[6-(1-Hydroxy-ethyl)-2,4-dioxo-7-trifluoromethyl-1,4-dihydro-2H-quinazolin-3-yl]-methanesulfonamide] | Yes |
| COC(C)c1cc2c(=O)n(NS(C)(=O)=O)c(=O)[nH]c2cc1C(F)(F)F (stereo not drawn) [Compound A-2, N-[6-(1-Methoxy-ethyl)-2,4-dioxo-7-trifluoromethyl-1,4-dihydro-2H-quinazolin-3-yl]-methanesulfonamide] | Yes |
| CCC(O)c1cc2c(=O)n(NS(C)(=O)=O)c(=O)[nH]c2cc1C(F)(F)F (stereo not drawn) [Compound A-3, N-[6-(1-Hydroxy-propyl)-2,4-dioxo-7-trifluoromethyl-1,4-dihydro-2H-quinazolin-3-yl]-methanesulfonamide] | Yes |
| CC(C)OC(C)c1cc2c(=O)n(NS(C)(=O)=O)c(=O)[nH]c2cc1C(F)(F)F (stereo not drawn) [Compound A-4, N-[6-(1-Isopropoxy-ethyl)-2,4-dioxo-7-trifluoromethyl-1,4-dihydro-2H-quinazolin-3-yl]-methanesulfonamide] | Yes |
| CCOC(C)c1cc2c(=O)n(NS(C)(=O)=O)c(=O)[nH]c2cc1C(F)(F)F (stereo not drawn) [Compound A-5, N-[6-(1-Ethoxy-ethyl)-2,4-dioxo-7-trifluoromethyl-1,4-dihydro-2H-quinazolin-3-yl]methanesulfonamide] | yes |
| CCCOC(CC)c1cc2c(=O)n(NS(C)(=O)=O)c(=O)[nH]c2cc1C(F)(F)F (stereo not drawn) [Compound A-6, N-[2,4-Dioxo-6-(1-propoxy-propyl)-7-trifluoromethyl-1,4-dihydro-2H-quinazolin-3-yl]-methanesulfonamide] | Yes |
| CCC(OC(C)C)c1cc2c(=O)n(NS(C)(=O)=O)c(=O)[nH]c2cc1C(F)(F)F (stereo not drawn) [Compound A-7, N-[6-(1-isopropoxy-propyl)-2,4-dioxo-7-trifluoromethyl-1,4-dihydro-2H-quinazolin-3-yl]-methanesulfonamide] | Yes |
| CCOC(CC)c1cc2c(=O)n(NS(C)(=O)=O)c(=O)[nH]c2cc1C(F)(F)F (stereo not drawn) [Compound A-13, N-[6-(1-Ethoxy-propyl)-2,4-dioxo-7-trifluoromethyl-1,4-dihydro-2H-quinazolin-3-yl]-methanesulfonamide] | Yes |
| CC(OC1CCCC1)c1cc2c(=O)n(NS(C)(=O)=O)c(=O)[nH]c2cc1C(F)(F)F (stereo not drawn) [Compound A-14, N-[6-(1-Cyclopentyloxy-ethyl)-2,4-dioxo-7-trifluoromethyl-1,4-dihydro-2H-quinazolin-3-yl]-methanesulfonamide] | yes |
| CCCC(O)c1cc2c(=O)n(NS(C)(=O)=O)c(=O)[nH]c2cc1C(F)(F)F (stereo not drawn) [Compound A-15, N-[6-(1-Hydroxy-butyl)-2,4-dioxo-7-trifluoromethyl-1,4-dihydro-2H-quinazolin-3-yl]-methanesulfonamide] | Yes |
| COCCC(O)c1cc2c(=O)n(NS(C)(=O)=O)c(=O)[nH]c2cc1C(F)(F)F (stereo not drawn) [Compound A-18, N-[6-(1-Hydroxy-3-methoxy-propyl)-2,4-dioxo-7-trifluoromethyl-1,4-dihydro-2H-quinazolin-3-yl]-methanesulfonamide] | Yes |
| CS(=O)(=O)Nn1c(=O)[nH]c2cc(C(F)(F)F)c(C3CCCO3)cc2c1=O (stereo not drawn) [Compound B-2, N-[2,4-Dioxo-6-(tetrahydro-furan-2-yl)-7-trifluoromethyl-1,4-dihydro-2H-quinazolin-3-yl]-methanesulfonamide] | Yes |
| COCCn1nccc1-c1cc2c(=O)n(NS(C)(=O)=O)c(=O)[nH]c2cc1C(C)C [Compound C-1, N-{7-Isopropyl-6-[2-(2-methoxy-ethyl)-2H-pyrazol-3-yl]-2,4-dioxo-1,4-dihydro-2H-quinazolin-3-yl}-methanesulfonamide] | yes |
| CC(C)n1nccc1-c1cc2c(=O)n(NS(C)(=O)=O)c(=O)[nH]c2cc1C(F)(F)F [Compound C-2, N-[6-(2-Isopropyl-2H-pyrazol-3-yl)-2,4-dioxo-7-trifluoromethyl-1,4-dihydro-2H-quinazolin-3-yl]-methanesulfonamide] | Yes |
| CC(C)n1nccc1-c1cc2c(=O)n(NS(C)(=O)=O)c(=O)[nH]c2cc1CF [Compound C-3, N-[7-Fluoromethyl-6-(2-isopropyl-2H-pyrazol-3-yl)-2,4-dioxo-1,4-dihydro-2H-quinazolin-3-yl]-methanesulfonamide] | Yes |
| COCCn1nccc1-c1cc2c(=O)n(NS(C)(=O)=O)c(=O)[nH]c2cc1C(F)(F)F [Compound C-4, N-{6-[2-(2-Methoxy-ethyl)-2H-pyrazol-3-yl]-2,4-dioxo-7-trifluoromethyl-1,4-dihydro-2H-quinazolin-3-yl}-methanesulfonamide] | Yes |
| CS(=O)(=O)Nn1c(=O)[nH]c2cc(C(F)(F)F)c(-c3ccnn3O)cc2c1=O [Compound C-5, N-[6-(2-Hydroxy-2H-pyrazol-3-yl)-2,4-dioxo-7-trifluoromethyl-1,4-dihydro-2H-quinazolin-3-yl]-methanesulfonamide] | Yes |
| CCc1cc2[nH]c(=O)n(NS(C)(=O)=O)c(=O)c2cc1-c1ccnn1C(C)C [Compound C-6, N-[7-Ethyl-6-(2-isopropyl-2H-pyrazol-3-yl)-2,4-dioxo-1,4-dihydro-2H-quinazolin-3-yl]-methanesulfonamide] | yes |
| CC(C)c1cc2[nH]c(=O)n(NS(C)(=O)=O)c(=O)c2cc1-c1ccnn1C(C)C [Compound C-8, N-[7-Isopropyl-6-(2-isopropyl-2H-pyrazol-3-yl)-2,4-dioxo-1,4-dihydro-2H-quinazolin-3-yl]-methanesulfonamide] | yes |
| Cn1nccc1-c1cc2c(=O)n(NS(C)(=O)=O)c(=O)[nH]c2cc1C(F)F [Compound C-9, N-[7-Difluoromethyl-6-(2-methyl-2H-pyrazol-3-yl)-2,4-dioxo-1,4-dihydro-2H-quinazolin-3-yl]-methanesulfonamide] | Yes |
| CC(C)n1nccc1-c1cc2c(=O)n(NS(C)(=O)=O)c(=O)[nH]c2cc1C(F)F [Compound C-10, N-[7-Difluoromethyl-6-(2-isopropyl-2H-pyrazol-3-yl)-2,4-dioxo-1,4-dihydro-2H-quinazolin-3-yl]-methanesulfonamide] | Yes |
| CCc1cc2[nH]c(=O)n(NS(C)(=O)=O)c(=O)c2cc1-c1ccnn1C [Compound C-11, N-[7-Ethyl-6-(2-methyl-2H-pyrazol-3-yl)-2,4-dioxo-1,4-dihydro-2H-quinazolin-3-yl]-methanesulfonamide] | Yes |
| CCc1cc2[nH]c(=O)n(NS(C)(=O)=O)c(=O)c2cc1-c1ccnn1CC [Compound C-12, N-[7-Ethyl-6-(2-ethyl-2H-pyrazol-3-yl)-2,4-dioxo-1,4-dihydro-2H-quinazolin-3-yl]-methanesulfonamide] | Yes |
| Cn1nccc1-c1cc2c(=O)n(NS(C)(=O)=O)c(=O)[nH]c2cc1C(C)(F)F [Compound C-15, N-[7-(1,1-difluoro-ethyl)-6-(2-methyl-2H-pyrazol-3-yl)-2,4-dioxo-1,4-dihydro-2H-quinazolin-3-yl]-methanesulfonamide] | Yes |
| CC(C)n1nccc1-c1cc2c(=O)n(NS(C)(=O)=O)c(=O)[nH]c2cc1C(C)(F)F [Compound C-16, N-[7-(1,1-difluoro-ethyl)-6-(2-isopropyl-2H-pyrazol-3-yl)-2,4-dioxo-1,4-dihydro-2H-quinazolin-3-yl]-methanesulfonamide] | Yes |
| CC(F)c1cc2[nH]c(=O)n(NS(C)(=O)=O)c(=O)c2cc1-c1ccnn1C(C)C (stereo not drawn) [Compound C-17, N-[7-(1-fluoro-ethyl)-6-(2-isopropyl-2H-pyrazol-3-yl)-2,4-dioxo-1,4-dihydro-2H-quinazolin-3-yl]-methanesulfonamide] | Yes |
| Cn1nccc1-c1cc2c(=O)n(NS(C)(=O)=O)c(=O)[nH]c2cc1C(F)(F)F [Compound C-18, N-[6-(2-Methyl-2H-pyrazol-3-yl)-2,4-dioxo-7-trifluoromethyl-1,4-dihydro-2H-quinazolin-3-yl]-methanesulfonamide] | Yes |

What follows are compounds tested on OF1 mice (assay: maximal electroshock test (MES Test)). Settings: p.o., 1 h, @ 20 (mg/kg).
Type: in vivo, mouse
Procedure: Compounds of the invention were tested in OF1 mice using the maximal electroshock test (MES Test) described in detail by Schmutz et al., Naunyn-Schmiedeberg's Arch Pharmacol 1990, 342, 61-66. Briefly, generalized tonic-clonic convulsions of the hind extremities were induced by passing electrical current through temporal electrodes (50 Hz, 18 mA, 0.2 s). […] 30 mg/kg carbamazepine was used as a positive control; mice were classified as protected by a compound If the duration of the seizure lasted only 3 second or less. Five mice were used for each treatment condition and the percentage of protected mice was used as readout (i.e. a compound could give 0%, 20%, 40%, 60%, 80% or 100% protection). […]
ED50 values (ED: effective dose) were calculated using GraphPad Prism, v4.02.

| SMILES | MES-Test (1 h, po) protection [% @ 20] |
| --- | --- |
| Cn1nccc1-c1cc2c(=O)n(NS(C)(=O)=O)c(=O)[nH]c2cc1C(C)(F)F [Compound C-15, N-[7-(1,1-difluoro-ethyl)-6-(2-methyl-2H-pyrazol-3-yl)-2,4-dioxo-1,4-dihydro-2H-quinazolin-3-yl]-methanesulfonamide] | 80 |

Same assay, conditions: p.o., 1 h, @ 25 (mg/kg)

| SMILES | MES-Test (1 h, po) protection [% @ 25] |
| --- | --- |
| COCCn1nccc1-c1cc2c(=O)n(NS(C)(=O)=O)c(=O)[nH]c2cc1C(C)C [Compound C-1, N-{7-Isopropyl-6-[2-(2-methoxy-ethyl)-2H-pyrazol-3-yl]-2,4-dioxo-1,4-dihydro-2H-quinazolin-3-yl}-methanesulfonamide] | 40 |

Same assay, conditions: p.o., 1 h, @ 50 (mg/kg)

| SMILES | MES-Test (1 h, po) protection [% @ 50] |
| --- | --- |
| CCc1cc2[nH]c(=O)n(NS(C)(=O)=O)c(=O)c2cc1-c1ccnn1C(C)C [Compound C-6, N-[7-Ethyl-6-(2-isopropyl-2H-pyrazol-3-yl)-2,4-dioxo-1,4-dihydro-2H-quinazolin-3-yl]-methanesulfonamide] | 20 |
| CC(C)c1cc2[nH]c(=O)n(NS(C)(=O)=O)c(=O)c2cc1-c1ccnn1C(C)C [Compound C-8, N-[7-Isopropyl-6-(2-isopropyl-2H-pyrazol-3-yl)-2,4-dioxo-1,4-dihydro-2H-quinazolin-3-yl]-methanesulfonamide] | 40 |

Same assay, conditions: p.o., pre-treatment time 1 h

| SMILES | MES-Test (1 h, po) ED50 [mg/kg] |
| --- | --- |
| CS(=O)(=O)Nn1c(=O)[nH]c2cc(C(F)(F)F)c(C3CCCO3)cc2c1=O [B-2 (R), N-[2,4-Dioxo-6-(tetrahydro-furan-2-yl)-7-trifluoromethyl-1,4-dihydro-2H-quinazolin-3-yl]-methanesulfonamide] | 12.8 |
| CS(=O)(=O)Nn1c(=O)[nH]c2cc(C(F)(F)F)c(C3CCCO3)cc2c1=O [B-2 (S), N-[2,4-Dioxo-6-(tetrahydro-furan-2-yl)-7-trifluoromethyl-1,4-dihydro-2H-quinazolin-3-yl]-methanesulfonamide] | 33.2 |
